Results reported in patent US20230310634A1, “ANTI-HUMAN VISTA ANTIBODIES AND USE THEREOF” (IMMUNEXT, INC., priority 2020, published 2023).
Entries after “also recorded” stand apart in the source; their conditions may differ.

Key:
[1] = test system: LPS-induced cytokine release; assay: LPS-induced systemic inflammation, plasma cytokines post LPS; parameters: species or system mice; conditions: mouse, in vivo
Method: In order to evaluate the ADC potential efficacy in auto-immune diseases, we used the short-term model of LPS-induced systemic inflammation. Intraperitoneal (i.p.) injection of lipopolysaccharide (LPS) is widely used as a model for acute immune response—both local and systemic—in mice.
Blood was collected at 2 or 4 h post LPS i.p. injection, and plasma isolated for cytokine analyses.
Mice were dosed at 0.5 mg/Kg.
For ADC-INVIVO-30 and 35, the Immune Monitoring Lab (IML, Shared Resources at Dartmouth-Hitchcock Norris Cotton Cancer Center) performed the analyses.
ELISAs were conducted following the manufacturer's included protocol.
Cytokine data are censored when below a […] threshold for IL-12p40 and/or […] threshold for TNF-α as it indicates a failed LPS injection.

[2] = test system: peritoneal resident macrophages; assay: In vivo treatment / ex vivo activation of peritoneal resident macrophages (TNFα, IL-6); parameters: species or system mice; conditions: Experiment 9, 0.2 mg/Kg of GC payload, day −7, supernatants at 24 h
[3] = test system: LPS stimulated human PBMCs; assay: In vitro potency of steroid payloads in LPS stimulated human PBMCs (IL-1β, IL-6 ELISA); assay type: cell-based; conditions: for IL-1β and IL-6 production: Experiment 1, 1000-1 nM

SMILES | potency of conjugated linker/payload in the short term LPS activation model (conclusions) [1] | steroid potency as free payloads in LPS-activated human PBMCS (conclusions) [3] | further results
CC12C=CC(=O)C=C1CCC1C2C(O)CC2(C)C1CC1OC(c3ccc(Cc4cnc(NC(=O)C(CCC(=O)O)NC(=O)CNC(=O)CBr)s4)cc3)OC12C(=O)CO [INX N, (S)-4-(2-(2-bromoacetamido)acetamido)-5-((5-(4-((6aR,6bS,7S,8aS,8bS,10R,11aR,12aS,12bS)-7-hydroxy-8b-(2-hydroxyacetyl)-6a,8a-dimethyl-4-oxo-2,4,6a,6b,7,8,8a,8b,11a,12,12a,12b-dodecahydro-1H-naphtho[2′,1′:4,5]indeno[1,2-d][1,3]dioxol-10-yl)benzyl)thiazol-2-yl)amino)-5-oxopentanoic acid] | no potency |  | 
C[C@]12C=CC(=O)C=C1CC[C@@H]1[C@@H]2[C@@H](O)C[C@@]2(C)[C@H]1C[C@H]1O[C@@H](c3ccc(CC45CC(NC(=O)[C@H](CCC(=O)O)NC(=O)CNC(=O)CBr)(C4)C5)cc3)O[C@]12C(=O)CO [INX P, (S)-4-(2-(2-bromoacetamido)acetamido)-5-((3-(4-((6aR,6bS,7S,8aS,8bS,10R,11 aR,12aS,12bS)-7-hydroxy-8b-(2-hydroxyacetyl)-6a,8a-dimethyl-4-oxo-2,4,6a,6b,7,8,8a,8b,11a,12,12a,12b-dodecahydro-1H-naphtho[2′,1′:4,5]indeno[1,2-d][1,3]dioxol-10-yl)benzyl)bicycle[1.1.1]pentan-1-yl)amino)-5-oxopentanoic acid] | more potent |  | 
C[C@H](NC(=O)CBr)C(=O)N[C@@H](C)C(=O)NC12CC(Cc3ccc([C@@H]4O[C@@H]5C[C@H]6[C@@H]7CCC8=CC(=O)C=C[C@]8(C)[C@H]7[C@@H](O)C[C@]6(C)[C@]5(C(=O)CO)O4)cc3)(C1)C2 [INX R, (S)-2-(2-bromoacetamido)-N—((S)-1-((3-(4-((6aR,6bS,7S,8aS,8bS,10R,11aR, 12aS,12bS)-7-hydroxy-8b-(2-hydroxyacetyl)-6a,8a-dimethyl-4-oxo-2,4,6a,6b,7,8,8a,8b,11a,12,12a,12b-dodecahydro-1H-naphtho[2′,1′:4,5]indeno[1,2-d][1,3]dioxol-10-yl)benzyl)bicyclo [1.1.1]pentan-1-yl)amino)-1-oxopropan-2-yl)propanamide] | efficacious |  | 
C[C@]12C=CC(=O)C=C1[C@@H](F)C[C@H]1[C@@H]3C[C@H]4O[C@@H](c5ccc(CC67CC(NC(=O)[C@H](CCC(=O)O)NC(=O)CNC(=O)CBr)(C6)C7)cc5)O[C@@]4(C(=O)CO)[C@@]3(C)C[C@H](O)[C@@]12F [INX S, (S)-4-(2-(2-bromoacetamido)acetamido)-5-((3-(4-((2S,6aS,6bR,7S,8aS,8bS, 10R,11 aR,12aS,12bS)-2,6b-difluoro-7-hydroxy-8b-(2-hydroxyacetyl)-6a,8a-dimethyl-4-oxo-2,4,6a,6b,7,8,8a,8b,11a,12,12a,12b-dodecahydro-1H-naphtho[2′,1′:4,5]indeno[1,2-d][1,3]dioxol-10-yl)benzyl)bicyclo [1.1.1]pentan-1-yl)amino)-5-oxopentanoic acid] |  |  | long term potency in controlling PRM cytokine responses (TNFα, IL-6) [2]: remarkable long term potency; also recorded: increased potency relative to INX P
C[C@]12C=CC(=O)C=C1CC[C@@H]1[C@@H]2[C@@H](O)C[C@@]2(C)[C@H]1C[C@H]1O[C@@H](c3ccc(CC4CC5(C4)CC(NC(=O)[C@H](CCC(=O)O)NC(=O)CNC(=O)CBr)C5)cc3)O[C@]12C(=O)CO (stereo partly drawn) [INX V, (S)-4-(2-(2-bromoacetamido)acetamido)-5-((6-(4-((6aR,6bS,7S,8aS,8bS,10R,11 aR,12aS,12bS)-7-hydroxy-8b-(2-hydroxyacetyl)-6a,8a-dimethyl-4-oxo-2,4,6a,6b,7,8,8a,8b,11a,12,12a,12b-dodecahydro-1H-naphtho[2′,1′:4,5]indeno[1,2-d][1,3]dioxol-10-yl)benzyl)spiro[3.3]heptan-2-yl)amino)-5-oxopentanoic acid] |  |  | long term potency in controlling PRM cytokine responses (TNFα, IL-6) [2]: remarkable long term potency
C[C@]12C=CC(=O)C=C1CC[C@@H]1[C@@H]2[C@@H](O)C[C@@]2(C)[C@H]1C[C@H]1O[C@H](c3ccc(CC45CC(N)(C4)C5)cc3)O[C@]12C(=O)CO [INX-SM-53, (6aR,6bS,7S,8aS,8bS,10S,11aR,12aS,12bS)-10-(4-((3-aminobicyclo[1.1.1]pentan-1-yl)methyl)phenyl)-7-hydroxy-8b-(2-hydroxyacetyl)-6a,8a-dimethyl-1,2,6a,6b,7,8,8a,8b, 11a,12,12a,12b-dodecahydro-4H-naphtho[2′,1′:4,5]indeno[1,2-d][1,3]dioxol-4-one] |  | did not show potency | IL-1β and IL-6 production ([3]; 1 ng/mL LPS, 24 hr, n=1 donor): did not show inhibition
C[C@]12C=CC(=O)C=C1CC[C@@H]1[C@@H]2[C@@H](O)C[C@@]2(C)[C@H]1C[C@H]1O[C@H](C34CC(Cc5cccc(N)c5)(C3)C4)O[C@]12C(=O)CO [INX-SM-54, (6aR,6bS,7S,8aS,8bS,10S,11aR,12aS,12bS)-10-(3-(3-aminobenzyl)bicyclo[1.1.1]pentan-1-yl)-7-hydroxy-8b-(2-hydroxyacetyl)-6a,8a-dimethyl-1,2,6a,6b,7,8,8a,8b,11a,12,12a,12b-dodecahydro-4H-naphtho[2′,1′:4,5]indeno[1,2-d][1,3]dioxol-4-one] |  | did not show potency | IL-1β and IL-6 production ([3]; 1 ng/mL LPS, 24 hr, n=1 donor): did not show inhibition
C[C@]12C=CC(=O)C=C1CC[C@@H]1[C@@H]2[C@@H](O)C[C@@]2(C)[C@H]1C[C@H]1O[C@H](c3cnc(Cc4cccc(N)c4)s3)O[C@]12C(=O)CO [INX-SM-56, (6aR,6bS,7S, 8aS,8bS,10S,11aR,12aS,12bS)-10-(2-(3-aminobenzyl)thiazol-5-yl)-7-hydroxy-8b-(2-hydroxyacetyl)-6a,8a-dimethyl-1,2,6a,6b,7,8,8a,8b, 11a,12,12a,12b-dodecahydro-4H-naphtho[2′,1′:4,5]indeno[1,2-d][1,3]dioxol-4-one] |  | did not show potency | IL-1β production ([3]; Experiment 2, 1000-1 nM, 1 ng/mL LPS, 24 hr, n=1 donor): did not show inhibition
C[C@]12C=CC(=O)C=C1[C@@H](F)C[C@H]1[C@@H]3C[C@H]4O[C@H](c5ccc(CC67CC(N)(C6)C7)cc5)O[C@@]4(C(=O)CO)[C@@]3(C)C[C@H](O)[C@@]12F [INX-SM-74, (2S,6aS,6bR,7S,8aS,8bS,10S,11aR,12aS,12bS)-10-(4-((3-aminobicyclo[1.1.1]pentan-1-yl)methyl)phenyl)-2,6b-difluoro-7-hydroxy-8b-(2-hydroxyacetyl)-6a,8a-dimethyl-1,2,6a,6b,7,8,8a,8b,11a,12,12a,12b-dodecahydro-4H-naphtho[2′,1′:4,5]indeno[1,2-d][1,3]dioxol-4-one] |  | varying degrees of dose dependent steroid potency; also recorded: moderate potency | impact of halogenation of the steroid ring on potency ([3]; Experiment 6, 1000-0.16 nM, compared with INX-SM-3): dose dependent potency
